Key:
Protein kinase C (PKC) [1] = assay: Inhibition of protein kinase C (PKC); format: protein assay
Phosphorylase kinase = assay: Inhibition of phosphorylase kinase (PhK); format: protein-complex assay
[2] = target: cAMP-dependent protein kinase (PKA) (Homo sapiens, UniProt P22694+P17612+P22612); assay: Inhibition of cyclic AMP dependent protein kinase A (PKA); format: protein assay
[3] = target: Protein kinase C gamma type (Rattus norvegicus, UniProt P63319); assay: Inhibition of Protein kinase C gamma (PKC)
[4] = target: T1, Protein kinase C beta type (Rattus norvegicus, UniProt P68403); assay: Inhibition of Protein kinase C beta
Protein kinase C (PKC) [5] = assay: Inhibition of protein kinase C from rat brain (PKC)
[6] = target: Protein kinase C alpha type (Rattus norvegicus, UniProt P05696); assay: Inhibition of Protein kinase C alpha
[7] = target: T2, Protein kinase C epsilon type (Rattus norvegicus, UniProt P09216); assay: Inhibition of Protein kinase C epsilon
T2 sequence (P09216 whole entry): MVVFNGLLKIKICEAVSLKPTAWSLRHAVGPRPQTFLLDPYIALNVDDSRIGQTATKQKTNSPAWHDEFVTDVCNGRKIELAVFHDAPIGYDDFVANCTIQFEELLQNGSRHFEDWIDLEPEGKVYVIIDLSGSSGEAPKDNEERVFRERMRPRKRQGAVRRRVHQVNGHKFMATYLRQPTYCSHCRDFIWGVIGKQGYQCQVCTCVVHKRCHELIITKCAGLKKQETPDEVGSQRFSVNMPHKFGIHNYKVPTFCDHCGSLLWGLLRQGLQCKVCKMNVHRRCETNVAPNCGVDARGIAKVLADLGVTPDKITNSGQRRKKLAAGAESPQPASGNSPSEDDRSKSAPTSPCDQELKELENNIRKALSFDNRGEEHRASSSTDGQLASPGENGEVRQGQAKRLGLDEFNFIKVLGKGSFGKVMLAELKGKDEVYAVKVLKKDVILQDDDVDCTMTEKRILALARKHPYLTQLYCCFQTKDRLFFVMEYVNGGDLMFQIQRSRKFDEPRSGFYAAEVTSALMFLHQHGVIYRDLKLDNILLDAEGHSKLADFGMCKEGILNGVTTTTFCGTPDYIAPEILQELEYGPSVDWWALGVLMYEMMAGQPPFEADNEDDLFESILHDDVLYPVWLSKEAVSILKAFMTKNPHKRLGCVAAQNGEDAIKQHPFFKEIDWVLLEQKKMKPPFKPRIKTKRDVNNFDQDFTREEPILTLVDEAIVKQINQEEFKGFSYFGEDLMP

[8] = target: T1, Protein kinase C beta type; assay: Inhibition of Protein kinase C beta 1

T1 sequence (P68403 whole entry): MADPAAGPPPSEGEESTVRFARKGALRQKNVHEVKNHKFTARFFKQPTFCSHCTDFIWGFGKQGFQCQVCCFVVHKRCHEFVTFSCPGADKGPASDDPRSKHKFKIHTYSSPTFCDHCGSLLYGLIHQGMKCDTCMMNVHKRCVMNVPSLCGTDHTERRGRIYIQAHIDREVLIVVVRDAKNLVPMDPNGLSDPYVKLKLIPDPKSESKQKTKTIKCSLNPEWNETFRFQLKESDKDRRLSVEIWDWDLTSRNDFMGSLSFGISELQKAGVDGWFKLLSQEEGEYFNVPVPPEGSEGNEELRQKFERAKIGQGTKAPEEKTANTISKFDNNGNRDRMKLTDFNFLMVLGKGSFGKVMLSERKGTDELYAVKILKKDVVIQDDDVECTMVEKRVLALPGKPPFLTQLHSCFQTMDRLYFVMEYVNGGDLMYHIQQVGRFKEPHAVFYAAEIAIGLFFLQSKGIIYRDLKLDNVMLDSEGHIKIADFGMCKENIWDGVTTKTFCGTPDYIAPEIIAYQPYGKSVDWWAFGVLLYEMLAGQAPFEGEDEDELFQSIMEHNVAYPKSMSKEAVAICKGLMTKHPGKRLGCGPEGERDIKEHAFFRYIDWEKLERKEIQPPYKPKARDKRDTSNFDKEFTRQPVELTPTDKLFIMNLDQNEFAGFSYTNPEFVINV

| IC50 (Protein kinase C (PKC) [1]) | IC50 (Phosphorylase kinase) | IC50 [2] | IC50 [3] | IC50 [4] | IC50 (Protein kinase C (PKC) [5]) | IC50 [6] | IC50 [7] | IC50 [8] | SMILES |
| --- | --- | --- | --- | --- | --- | --- | --- | --- | --- |
| 8 nM | 3.8 µM | 5.5 µM | – | – | – | – | – | – | CN1C[C@@H]2Cn3c(c(C4=C(c5cn(C)c6ccccc56)C(=O)NC4=O)c4ccccc43)C[C@H]2C1.Cl (stereo in doubt; form 2) |
| 5 nM | 1.69 µM | 2.8 µM | 5.4 nM | 6.8 nM | 6.8 nM | 2.85 nM | 48 nM | 5.3 nM | CN1C[C@@H]2Cn3c(c(C4=C(c5cn(C)c6ccccc56)C(=O)NC4=O)c4ccccc43)C[C@H]2C1.Cl (stereo in doubt; form 1) |
| – | 15.6 µM | 223.375 µM | 36.5 nM | 30.5 nM | 21 nM | 8.8 nM | 105 nM | 28 nM | CN(C)C[C@H]1CCn2c(c(C3=C(c4cn(C)c5ccccc45)C(=O)NC3=O)c3ccccc32)C1 [RO-320432] |
